PubChem BioAssay (NCI)
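All cell lines were grown in 96-well plates and treated with compound for 48 hours. GI50 marks 50% less growth. Definition used: TGI = concentration required for complete inhibition of growth.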 Where a SMILES comes first, the peptide text is derived from it. [ ]: non-standard residue; d: D form. The star is where a group is joined. mTyr = N[CH](Cc1cccc(O)c1)C(=O)O; Cbz = O=C(OCc1ccccc1)*; OBn = c1ccc(CO*)cc1

Tests used:
Experiment in all cases: NCI tumour cell line growth inhibition, 48 h
[1] = system: MOLT-4 leukemia
[2] = system: NCI/ADR-RES ovarian
[3] = system: U251 CNS
[4] = system: SNB-19 CNS
[5] = system: T-47D breast
[6] = system: SN12C renal
[7] = system: SK-MEL-5 melanoma
[8] = system: HOP-92 NSCLC
[9] = system: HS 578T breast
[10] = system: CCRF-CEM leukemia

SMILES	TGI [1] [µM]	TGI [2] [µM]	TGI [3] [µM]	TGI [4] [µM]	TGI [5] [µM]	TGI [6] [µM]	TGI [7] [µM]	TGI [8] [µM]	TGI [9] [µM]	TGI [10] [µM]	GI50 [1] [µM]	GI50 [8] [µM]
O[C@H]1[C@H](O)[C@@H](O)[C@@]2(O)C[C@@H](O)[C@@H]1N2	> 100	> 100	> 100	> 100	> 100	> 100	> 100	> 100	> 100	> 100		
COc1ccc(N=C2C(=Nc3ccc(OC)cc3)N(c3ccccc3)C(=S)N2N=C=C2Sc3ccccc3N2C)cc1	> 100	> 100	> 100	> 100	> 100	> 100	> 100	> 100	> 100			
Brc1c(C#CCC2CCCCC2)ccc(C#CCC2CCCCC2)c1Br	> 100	> 100	> 100	> 100	> 100	> 100	> 100	> 100	> 100	> 100		
O=C(/C=C/c1csc(-c2ccccc2)n1)NCc1ccc(C(=O)NCc2ccccc2)cc1	> 100	> 100	> 100	88.7	> 100	> 100	> 100	> 100	> 100	> 100		
C#CCOCC12C=CC(O1)C1C(=O)OCC12 (stereo not drawn)	> 100	> 100	> 100	> 100	> 100	> 100	> 100		> 100	> 100		
CCOC(=O)CSc1nnc(C(Sc2nc(-c3ccccc3)c(-c3ccccc3)[nH]2)C(C)C)n1-c1ccccc1 (stereo not drawn)	50	84	> 10	> 31.6	> 100	26.1	> 10	> 10		28.4		
O=C1NC(=S)N(c2ccccc2)C1=O	> 100	> 100	> 100	> 100	> 100	> 100	> 100	> 100	> 100	> 100		
CCCc1ccc(NCc2cc(OC)c(OC)c(OC)c2)cc1	66.2		81.9	> 100		53.2	32.5	75.8		49		
CSCCC(NC(=O)Cc1ccc(C(=O)c2ccccc2)cc1)C(=O)O (stereo not drawn)	> 100	> 100	> 100	> 100	> 100	> 100	> 100	> 100	> 100	> 100		
COc1ccc(/C=C2\CN(C)C/C(=C\c3ccc(OC)c(OC)c3OC)C2=O)c(OC)c1OC	0.0574		0.177	1.2	6.22	0.449	0.705	1.73	> 100	0.0805		
Cc1nc(-c2ccc(N=Cc3ccc(N(CCOS(C)(=O)=O)CCOS(C)(=O)=O)cc3C)cc2)cs1	> 100	> 100	> 100	> 100	90.2	> 100	38.5		> 100	> 100		
CC1OC(OC2C(OC(=O)[C@@H]3CC(C)(C)C[C@H]4C5=CC[C@@H]6[C@@]7(C)C[C@H](O)[C@H](OC8OC(CO)C(O)C(O)C8O)[C@@](C)(CO)[C@@H]7[C@H](O)C[C@@]6(C)[C@]5(C)CC[C@@]34C)OCC(O)C2O)C(O)C(O)C1O (stereo partly drawn)	> 7.5	> 7.5	> 7.5	> 7.5	> 7.5	> 7.5	> 7.5	> 7.5	> 7.5	> 7.5		
Cc1ccc2nc(NC(=O)/C(Cc3nc4ccc(Cl)cc4[nH]c3=O)=N\NC(C)(C)C)sc2c1	> 100	> 100	> 100	> 100	> 100	> 100		> 100	73	> 100		
CC(C)C1=CC23CCC4C(C)(C(=O)O)CCCC4(C)C2CC1C1C(=O)N(c2ccc(C(=O)O)cc2)C(=O)C13 (stereo not drawn)	> 100	> 100	> 100	> 100	> 100	> 100	> 100	> 100	> 100			
CCC1(COC(NC(=O)c2ccccc2)(C(F)(F)F)C(F)(F)F)COC1	> 100	> 100	> 100	> 100	> 100	> 100	> 100		> 100	> 100		
CCOc1ccc(-n2nnc3c(N)nc(N)nc32)cc1	> 100	> 100	> 100	> 100	> 100	> 100	> 100	> 100		> 100		
O=C(CC(=O)Nc1ccccc1)N/N=C/c1cc(N=Nc2ccc(Br)cc2)ccc1O	> 10	> 10	> 10		> 10	> 10	> 10	> 10	> 10	5.3		
Fc1ccccc1C1SCc2nc3cc4ccccc4cc3n21 (stereo not drawn)	> 100	> 100	> 100	> 100	> 100	> 100	> 100		96.4	> 100		
CCOc1cc(NC(C)=O)ccc1C(=O)NN1C(=O)C(Cl)C1c1ccco1 (stereo not drawn)	29.8	> 100		32.1	40.3	32.8	27.9	35.3	65.5	49.1		
CC(NC(C)(C)C)C(=O)c1cccc(Cl)c1 (stereo not drawn)	> 100		> 100			> 100	> 100			> 100		
COC(=O)c1cnn2c1n[n+]([O-])c1ccccc12	> 100	> 100	> 100		> 100	> 100	> 100	> 100	> 100	> 100		
CC(=O)OCC1OC(n2c(=O)[nH]c(=O)c3sccc32)C(Br)C1OC(C)=O (stereo not drawn)	> 100	> 100	> 100	> 100		> 100	> 100	> 100	> 100	> 100		
CC1(C)OCC(C(O)C2OC(C)(C)OC2/C=N\O)O1 (stereo not drawn)	> 100		> 100	> 100			> 100	> 100		> 100		
COC(=O)C(Cc1cccc(O)c1)NC(=O)C(CC(=O)OCc1ccccc1)NC(=O)OCc1ccccc1 (stereo not drawn) (Cbz-Asp(OBn)-[mTyr]-OMe; configuration not given here)	> 100		> 100	> 100	59.5	> 100	> 100	> 100	> 100			

SMILES	TGI [1] [µM]	TGI [2] [µM]	TGI [3] [µM]	TGI [4] [µM]	TGI [5] [µM]	TGI [6] [µM]	TGI [7] [µM]	TGI [8] [µM]	TGI [9] [µM]	TGI [10] [µM]	GI50 [1] [µM]	GI50 [8] [µM]
CC(C)=C/C=C1/CS(=O)(=O)C=C1C	> 100	> 100	> 100	> 100	> 100	> 100	> 100			> 100		
Cc1n[nH]c(=O)n1/N=C/c1ccc([N+](=O)[O-])o1	> 100	70.3	> 53.7	> 100	40.6	14.4	12.1			> 100		
COc1cc2c(cc1OC)C1(c3ccc(Cl)cc3)ON=C(c3ccccc3)N1CS2 (stereo not drawn)	> 100		> 100	> 100		> 100	> 100	> 100		> 100		
COc1cccc(N2C(=O)C3c4[nH]c5ccc(C)cc5c4C4CCC(C(C)(C)C)CC4C3C2=O)c1 (stereo not drawn)	5.04	9.27	> 10	> 10	> 10	> 10	> 10		> 10	7.57		
O=C(N/N=C/c1cc(Cl)cc(Cl)c1O)c1ccccc1O	> 100		18.4	43.7		23.3	5.38	19.7		> 100	0.375	3.69
COc1cc(/C=C(/C#N)C(N)=O)ccc1O	> 100	> 100	> 100	> 100		> 100	> 100	> 100		> 100		
Cc1cc(NCCCCCCCNc2cc(C)nc3cc([N+](=O)[O-])ccc23)c2ccc([N+](=O)[O-])cc2n1	4.23		27.4	39.5	18.5	13.4	29.9	47	5.53			
Nc1ccc(C(=O)NN2C(=O)C(Cl)C2c2ccccc2)cc1 (stereo not drawn)	> 100		> 100	> 100		> 100	> 100	> 100		> 100		
CC(C)(CC(O)C#N)/[N+]([O-])=[N+](\[O-])C(C)(C)CC(O)C#N (stereo not drawn)	34.5	> 100	> 100	> 100	82.3	45.3	> 100	41.9	> 100			
CCOC(=O)c1ccc(C(=O)C(C(C)=O)C(=O)OC(C)(C)C)[nH]1 (stereo not drawn)	> 100	> 100	> 100	> 100	> 100	> 100	> 100		> 100			
Cc1ccc(/C(O)=C/C(=O)C(=O)NN=C(c2ccccc2)c2ccccc2)cc1	> 100	> 100	> 100	> 100	> 100		> 100	> 100	> 100	> 100		
O=C(Nc1cccc(F)c1)c1cc2ccc(O)cc2oc1=Nc1ccccc1F	24.7	10.3	13.4	21	12.1	22.5	9.57		14.1	6.42		
O=C(CSC1=NCCN1)Nc1ccccc1	> 100	73.6	39.2	> 100	61.2	41.1		91	65.9	> 100		
Cc1ccc(CC(C)N)cc1 (stereo not drawn)	> 100		> 100	> 100		> 100	> 100	> 100		> 100		
CNc1ccc(N)cc1C(=O)N1CCC[C@H]1CO	> 100	> 100	> 100	> 100	> 100	> 100	> 100		> 100	> 100		
COc1cc(-c2cc(-c3cc([N+](=O)[O-])c(/C=N/NC(=O)c4ccncc4)o3)ccc2OC)ccc1C				> 100		> 100		> 100				
CC(C)(C)c1cc(C2COC(c3cc(C(C)(C)C)c(O)c(C(C)(C)C)c3)CO2)cc(C(C)(C)C)c1O (stereo not drawn)		> 100	> 100	> 100	> 100	> 100	> 100	> 100	> 100	> 100		
O=C(Cc1ccccc1)NN1C(=O)C(Cl)C1c1ccccc1O (stereo not drawn)	> 100		> 100	82		> 100				> 100		
COc1ccc2c(c1)CCN1CCc3cc(OC)c(OC)cc3CC21 (stereo not drawn)	> 100	> 100	> 100	> 100	> 100	> 100		> 100	> 100	> 100		
CCN(CC)CCNCc1cc(Cl)cc2c1OCOC2	> 10	> 10	> 10	> 10	> 10	> 10	> 10		> 10	> 10		
COc1ccc(CSc2ccccc2Cn2cccc2)cc1OC		> 100	> 100	> 100	> 100	> 100	> 100			> 100		
O=C(O)CNC(=O)c1c2ccccc2nc2ccccc12	> 100	> 100	> 100	> 100		> 100	> 100	> 100		> 100		
CCN(CC)Cc1sc2nc3ccccc3n2c1-c1ccc(OC)cc1	> 100	90.8	> 100	> 100				> 100	> 100	67.6		
